# Measurements taken from patent US20260373103A1, “COMPOSITIONS AND METHODS FOR PREVENTING CARDIOMYOPATHY” (OHIO STATE INNOVATION FOUNDATION, priority 2022, published 2026).
# “Also recorded” adds a separate entry of the source.
# Assays:
# [1] = Plasma pharmacokinetics after i.p. injection; format: in vivo; details: mice, 25 mg/kg i.p.
# Experimental: (§1) ST-539 was dissolved into 1% DMSO in Sesame oil and injected intraperitoneally (i.p.) at doses of 25 mg/kg. Serial blood samples were collected at 0.083, 0.25, 0.5, 1, 2, 4 and 8 hours post dosing. Mice were euthanized at 24 hours post dosing. A terminal blood sample was collected by cardiac puncture followed by harvesting the brain and heart. Transcardial perfusion was performed prior to brain collection. The blood samples were placed in microtubes pretreated with K2EDTA as an anticoagulant and kept on ice until centrifugation. The tissue samples were rinsed using cold distilled water to remove blood, blotted dry, weighed and stored on dry ice until LC/MS/MS analysis. Plasma was transferred into polypropylene tubes or 96-well plates, quick frozen on dry ice, and stored at −70±10 °C until LC/MS/MS analysis.
# [2] = Tissue concentrations 24 h post-dose; format: in vivo, Male C57BL/6 Mice
# Experimental: as §1
# [3] = test system: heart tissue of mt-Keima mice; assay: In vivo mitophagy in heart, mt-Keima mice; design: species or system mouse; details: 25 mg/kg/day i.p. for 5 days
# Experimental: (§2) Fluorescent samples were examined with a Zeiss LSM 780 confocal microscope (Carl Zeiss MicroImaging). As previously described^2, fluorescence of mt-Keima was imaged in two channels via two sequential excitations (458 nm, green; 561 nm, red) and using a 570- to 695-nm emission range. Confocal experiments for parkin translocation were performed using a HeLa cell line stably expressing YFP-Parkin plated on 35 mm coverglass #1.5 chamber dishes (MatTek). These cells were treated for 2 h with DMSO as vehicle control or with A/O. YFP was imaged with a 514-nm excitation and 520- to 570-emission filters. Representative confocal images were processed using Imaris software by contrast linear stretch only. Calculation of mitophagy based on mt-Keima signal was performed using Zeiss ZEN software as previously described^2. The average of four images from each tissue sample was taken, and the values were normalized to the average value seen in the controls, assigned the value of one.
# (§3) The mt-Keima mouse. […] The mice were lightly anesthetized with isoflurane and the ejection fraction, fractional shortening, and ventricular chamber dimensions were determined using 2-D-guided M mode images. Ejection fraction, fractional shortening, ventricular chamber dimensions, and left ventricular mass were calculated automatically using the VevoLAB program. […]
# [4] = test system: liver tissue of mt-Keima mice; assay: In vivo mitophagy in liver, mt-Keima mice; design: species or system mouse; details: 25 mg/kg/day i.p. for 5 days
# Experimental: as §2, §3
# hippocampus of the brain = assay: In vivo mitophagy in hippocampus of the brain; design: species or system mouse; details: 25 mg/kg/day i.p. for 5 days
# Experimental: as §2, §3
# LC3-II/LC3-I = assay: LC3 I/II immunoblotting of heart tissue; format: in vivo, mice; details: 25 mg/kg/day i.p. for 5 days
# Experimental: Cells were lysed in RIPA buffer (50 mM Tris-HCl, at pH 8.0; 150 mM NaCl; 1% (vol/vol) Nonidet P-40; 0.5% sodium deoxycholate, 0.1% SDS and protease inhibitor cocktail (Roche)) on ice. Primary antibodies were used at the following concentrations: USP30 (Santa Cruz, sc-515235, 1:200); TOM20 (Cell Signaling Technology, 42406S, 1:1000); TOM40 (Proteintech, 18409-1-AP, 1:1000); NDP52 (Cell Signaling Technology, 60732S, 1:1000); TIM23 (Proteintech, 11123-1-AP, 1:500); LC3A/B (Cell Signaling Technology, 4108S, 1:1000); GAPDH (Cell Signaling Technology, 5175S, 1:1000); PINK1 (Cell Signaling Technology, 6946S, 1:1000); ACTIN (Cell Signaling Technology, 3700S, 1:1000). The membranes were incubated with anti-rabbit (LI-COR, 926-32211, 1:15000) or anti-mouse (LI-COR, 926-68072, 1:15000) IgG secondary antibodies for 1 h at room temperature. Images were captured using the Odyssey system (LI-Cor). One representative blot is shown of three independent experiments.
# as §3
# [5] = test system: Human induced pluripotent stem cell-derived cardiomyocytes; assay: Doxorubicin-induced cell death in hiPSC-CMs; format: cell-based; details: 48 hours, doxorubicin+ST-539
# HeLa cells = assay: Mitophagy inducer screen by TOM20 turnover; format: cell-based; details: cellular TOM20 turnover assay
# Experimental: The enzymatic activity of Parkin is to function as an E3 ubiquitin ligase. […] To investigate TOM20 ubiquitination during mitophagy, we treated HeLa cells stably expressing YFP-Parkin (Hela-Parkin) for up to 18 h with both the mitochondrial complex III inhibitor antimycin A and the ATP synthase inhibitor oligomycin (antimycin A/oligomycin/[A/O]; FIG. 1A). […] A/O treatment also results in a decline in the abundance of the OMM protein TOM40 and the inner mitochondrial protein TIM23 (FIG. 1A). […] In this context, increased expression of USP30 blocked the accumulation of ubiquitinated TOM20 and prevented the destruction of this outer mitochondrial protein, as well as TOM40 and TIM23, after A/O treatment (FIG. 1A). We then employed this cellular assay to monitor TOM20 turnover, and analyzed compounds known to be associated with the ubiquitination process for inhibitors of USP30. […] We defined the effects of this chemical using biochemical assays. […] Initially to assess mitophagy in cells, we monitored the degradation of the inner membrane protein, the translocase of the inner membrane 23 (TIM23), by immunoblotting (FIG. 5A). […] USP30's overexpression prevented a reduction in TIM23 and TOM40 levels.
# [6] = 24 Hours Post-dose, 25 mg/kg i.p., mean
compound,measurement,setting,value
CC(C)(C)NS(=O)(=O)c1cccc2c(NC(=O)C(Cc3ccccc3)NC(=O)c3ccccc3)cccc12 (stereo not shown) [ST-539],area under the plasma drug concentration-time curve (AUC),[1],~ 4.2 μg·h/ml
same,half-life (T1/2),[1],about 3.85 hr
same,maximum plasma concentration (Cmax),[1],about 1.4 μg/ml
same,time to reach peak plasma concentration (Tmax),[1],1.33 h
same,AUC0-inf,[1]; plasma,4240 ng·h/mL
same,AUC0-last,[1]; plasma,4162 ng·h/mL
same,Cmax,[1]; plasma,1427 ng/mL
same,MRT0-inf,[1]; plasma,4.27 h
same,MRT0-last,[1]; plasma,3.86 h
same,T1/2,[1]; plasma,3.85 h
same,Tlast,[1]; plasma,24.0 h
same,Tmax,[1]; plasma,1.33 h
same,Brain concentration,[2]; [6],17.4 ng/g
same,Heart concentration,[2]; [6],37.0 ng/g
same,ST-539 detected in mouse brain homogenate,[2]; 24 h post-dose,modest concentrations
same,cardiac mitophagy (red mt-Keima signal in heart tissue),[3],marked induction of the red signal in the heart tissue; also recorded: efficiently induces cardiac mitophagy
same,hepatic mitophagy,[4],remains unchanged; also recorded: inability of ST-539 to induce hepatic mitophagy
same,mitophagic flux in hippocampus,hippocampus of the brain,remains unchanged
same,LC3-II/LC3-I ratio in heart,LC3-II/LC3-I,increase in LC3-II/LC3-I ratio
same,LC3-II level in heart,LC3-II/LC3-I; *p<0.05,increased levels of LC3-II
same,doxorubicin-induced cell death (percent survival of hiPSC-CMs),[5],reduces doxorubicin-induced cell death
same,potency as mitophagy inducer in screen,HeLa cells,most potent mitophagy inducer
